Data from US20140142127A1, “Stable Compositions of HMG-COA Reductase Inhibitors and Omega-3 Oils” (Almburg, LLC, priority 2012, published 2014).

Assay: Storage stability of statin Ca salt suspensions in omega-3 oils, statin and lactone quantified by HPLC
Assay type: physicochemical
Protocol: (§1) Atorvastatin Ca (At) in ethyl ester of EPA (97% purity from Equatec) was prepared as follows: The drug substance was weighed into a glass vessel containing a magnetic stir bar and the oil was then added by volume to make a 10 mg/ml suspension. The clear oil made an off-white suspension with the drug, which was uniformly dispersed by magnetic stirring. Each formulation also had 1% BHA via ethanol solution (1% of volume of the final suspension from a 100 mg/mL solution of BHA in anhydrous ethanol, resulting in 1 mg/mL BHA or 0.1% w/V). While stirring the suspensions were individually transferred by mass into 250 ul glass vial inserts to about 260 mg, which was essentially a complete fill. Vials were crimped with a teflon-backed seal and placed on stability stations: 25 C/60% RH, 40 C/75% RH and −20 C for reference. Samples were pulled at monthly intervals and prepared for HPLC analysis using a C18 column, samples were transferred, fully dissolved and diluted to 10.0 ml with dry DMF. At and corresponding lactone were quantified from HPLC chromatograms against standards of the At API. Integration was done using the Perkin Elmer software supplied with the HPLC system.
as §1, with “omega-3 free fatty acid” for “ethyl ester of EPA (97% purity from Equatec)”
as §1, with “Rosuvastatin” for “Atorvastatin”, “(Ro)” for “(At)”
RosuvastatinCa (Ro) in omega-3 free fatty acid was prepared as follows: The drug substance was weighed into a glass vessel containing a magnetic stir bar and the oil was then added by volume to make a 10 mg/ml suspension. The clear oil made an off-white suspension with the drug, which was uniformly dispersed by magnetic stirring. […]

[1] = Ethyl ester omega-3 oil, additive CaCO3, 25° C./60% RH, 3 months
[2] = Ethyl ester omega-3 oil, additive CaCO3, 40° C./75% RH, 1 month
[3] = Ethyl ester omega-3 oil, additive CaCO3, 40° C./75% RH, 3 months
[4] = Ethyl ester omega-3 oil, additive CaCl2, 25° C./60% RH, 3 months
[5] = Ethyl ester omega-3 oil, additive CaCl2, 40° C./75% RH, 1 month
[6] = Ethyl ester omega-3 oil, additive CaCl2, 40° C./75% RH, 3 months
[7] = Ethyl ester omega-3 oil, additive CaHPO4, 25° C./60% RH, 3 months
[8] = Ethyl ester omega-3 oil, additive CaHPO4, 40° C./75% RH, 1 month
[9] = Ethyl ester omega-3 oil, additive CaHPO4, 40° C./75% RH, 3 months
[10] = Ethyl ester omega-3 oil, additive None, 40° C./75% RH, 1 month
[11] = Free acid omega-3 oil, additive CaCO3, 25° C./60% RH, 3 months
[12] = Free acid omega-3 oil, additive CaCO3, 40° C./75% RH, 1 month
[13] = Free acid omega-3 oil, additive CaCO3, 40° C./75% RH, 3 months
[14] = Free acid omega-3 oil, additive CaCl2, 25° C./60% RH, 3 months
[15] = Free acid omega-3 oil, additive CaCl2, 40° C./75% RH, 1 month
[16] = Free acid omega-3 oil, additive CaCl2, 40° C./75% RH, 3 months
[17] = Free acid omega-3 oil, additive CaHPO4, 25° C./60% RH, 3 months
[18] = Free acid omega-3 oil, additive CaHPO4, 40° C./75% RH, 1 month
[19] = Free acid omega-3 oil, additive CaHPO4, 40° C./75% RH, 3 months
[20] = Free acid omega-3 oil, additive None, 40° C./75% RH, 1 month
[21] = Triglyceride omega-3 oil, additive None, 40° C./75% RH, 1 month

In the case of `CC(C)c1nc(N(C)S(C)(=O)=O)nc(-c2ccc(F)cc2)c1/C=C/[C@@H](O)C[C@@H](O)CC(=O)O` [Rosuvastatin, Rosuvastatin Ca], the “Ro Lactone” value [1] is reported as 0.31%, the Rosuvastatin [1] is reported as 101.9% and the “Ro Lactone” value [2] is reported as 0.79%. For the same compound, the Rosuvastatin [2] was 79.8%, the “Ro Lactone” value [3] was 5.56% and the Rosuvastatin [3] was 86.1%. For the same compound, the “Ro Lactone” value [4] was 0.23%, the Rosuvastatin [4] was 110.4% and the “Ro Lactone” value [5] was 0.09%. The Rosuvastatin [5] was 93.1%, the “Ro Lactone” value [6] was 1.03% and the Rosuvastatin [6] was 108.8%. The “Ro Lactone” value [7] was 0.26%, the Rosuvastatin [7] was 98.2% and the Rosuvastatin [8] was 96.2%. For the same compound, the “Ro Lactone” value [9] was 9.75%, the Rosuvastatin [9] was 83.7% and the “Ro Lactone” value [10] was 0.92%. The Rosuvastatin [10] was 95.0%, the “Ro Lactone” value [11] was 1.0% and the Rosuvastatin [11] was 100.2%. For the same compound, the “Ro Lactone” value [12] was 0.25%, the Rosuvastatin [12] was 105.4% and the “Ro Lactone” value [13] was 0.83%. The Rosuvastatin [13] was 92.4%, the “Ro Lactone” value [14] was 0.44% and the Rosuvastatin [14] was 101.9%. The “Ro Lactone” value [15] was 0.28%, the Rosuvastatin [15] was 105.2% and the “Ro Lactone” value [16] was 0.39%. For the same compound, the Rosuvastatin [16] was 98.7%, the “Ro Lactone” value [17] was 0.74% and the Rosuvastatin [17] was 99.9%. The “Ro Lactone” value [18] was 0.17%, the Rosuvastatin [18] was 99.5% and the “Ro Lactone” value [19] was 0.69%. For the same compound, the Rosuvastatin [19] was 102.2%, the “Ro Lactone” value [20] was 60.0% and the Rosuvastatin [20] was 39.1%. The “Ro Lactone” value [21] was 2.5% and the Rosuvastatin [21] was 100.6%.

With `CC(C)c1c(C(=O)Nc2ccccc2)c(-c2ccccc2)c(-c2ccc(F)cc2)n1CC[C@@H](O)C[C@@H](O)CC(=O)O` [Atorvastatin, Atorvastatin Ca] the “At Lactone” value [1] was 0.26%, the Atorvastatin [1] was 110.7% and the “At Lactone” value [2] was 0.34%. For the same compound, the Atorvastatin [2] was 97.6%, the “At Lactone” value [3] was 1.87% and the Atorvastatin [3] was 111.8%. For the same compound, the “At Lactone” value [4] was 0.35%, the Atorvastatin [4] was 98.2% and the “At Lactone” value [5] was 0.06%. For the same compound, the Atorvastatin [5] was 103.2%, the “At Lactone” value [6] was 0.48% and the Atorvastatin [6] was 97.1%. For the same compound, the “At Lactone” value [7] was 0.38%, the Atorvastatin [7] was 98.0% and the “At Lactone” value [8] was 0.21%. For the same compound, the Atorvastatin [8] was 100.9%, the “At Lactone” value [9] was 4.80% and the Atorvastatin [9] was 90.8%. The “At Lactone” value [10] was 0.18%, the Atorvastatin [10] was 98.0% and the “At Lactone” value [11] was 24.6%. The Atorvastatin [11] was 77.3%, the “At Lactone” value [12] was 1.5% and the Atorvastatin [12] was 101.8%. For the same compound, the “At Lactone” value [13] was 35.2%, the Atorvastatin [13] was 76.4% and the “At Lactone” value [14] was 18.6%. For the same compound, the Atorvastatin [14] was 84.2%, the “At Lactone” value [15] was 13.5% and the Atorvastatin [15] was 87.3%. The “At Lactone” value [16] was 19.8%, the Atorvastatin [16] was 90.7% and the “At Lactone” value [17] was 32.2%. The Atorvastatin [17] was 80.9%, the “At Lactone” value [18] was 13.6% and the Atorvastatin [18] was 99.5%. For the same compound, the “At Lactone” value [19] was 25.2%, the Atorvastatin [19] was 92.0% and the “At Lactone” value [20] was 75.6%. The Atorvastatin [20] was 22.8%, the “At Lactone” value [21] was 4.6% and the Atorvastatin [21] was 85.3%.
